# Biological target: BRD4 (Homo sapiens, UniProt O60885)
# Assay: Summary of E3 ligase directed degradation of BRD4, estimated from Western Blot or WES (Tables 1-6)
# Format: cell-based
# Parameters: endogenous in cells; host or cells: HeLa, MCF7 or HCT116
# Details: for Degradation of BRD4, combination with VHL ligand [drawing 442]: aromatic 1,2-diol-containing VHL ligand drawn as drawing 442 (by the text apparently 8305); for Degradation of BRD4, combination with CRBN ligand [drawing 421] / Degradation of BRD4, combination with CRBN ligand [drawing 422] / Degradation of BRD4, combination with CRBN ligand [drawing 397]: Table 1; for Degradation of BRD4, combination with CRBN ligand [drawing 421]: CRBN ligand drawn as drawing 421 (by the text apparently 8047); for Degradation of BRD4, combination with CRBN ligand [drawing 422]: CRBN ligand drawn as drawing 422 (by the text apparently 8066); for Degradation of BRD4, combination with CRBN ligand [drawing 397]: aromatic 1,2-diol- or hindered cis-1,2-diol-containing CRBN ligand drawn as drawing 397 (by the text apparently 8046); for Degradation of BRD4, combination with MDM2 ligand [drawing 431]: Table 2, aromatic 1,2-diol-containing MDM2 ligand drawn as drawing 431 (by the text apparently 8314); for Degradation of BRD4, combination with CRBN ligand [drawing 457]: Table 4, aryl-boronic acid-containing CRBN ligand drawn as drawing 457 (by the text apparently 8048)
# Experimental: HeLa, MCF7, or HCT116 cells (2.5-3×10^6) were treated for 24 hours with the indicated compounds solubilized in DMSO. The cells were washed in ice-cold PBS and were then lysed in RIPA lysis buffer (150 mM NaCl, 5 mM EDTA, 1% NP-40, 0.5% sodium deoxycholate, 0.1% SDS, 50 mM Tris, pH 8.0) with Roche protease inhibitor complete cocktail and phosphatase inhibitors (10 mM sodium fluoride, 10 mM sodium pyrophosphate, 1 mM sodium orthovanadate and 20 mM β-glycerophosphate). The total protein concentrations were determined by Bradford Protein Assay and 10-20 μg of protein was loaded onto 4-15% Tris-Glycine gradient gels (Biorad). After standard gel electrophoresis, the separated proteins were transferred to PVDF membrane by wet transfer. The immunoblots were then blocked for 1 hour in 5% skim milk in TBST or 5% BSA in TBST, according to manufacturer's instructions, before an overnight incubation at 4° C. with indicated antibodies and membranes. Membranes were then incubated with the appropriate horseradish peroxidase-conjugated secondary antibodies (1:5,000 dilution) for 1 h at room temperature and the bands were visualized using the Clarity Max Western ECL Substrate (Biorad) and the ChemiDoc Imaging System (Biorad). Signal was detected with ECL Western Blotting Substrate (Pierce) and X-ray film processed with a Konica SRX-101 X-ray film processor or captured by Bio-Rad's Chemidoc Imaging system.
# WES Simple analysis was performed on WES system (ProteinSimple-Biotechne) according to the manufacturer's instructions. Total protein concentrations of cell lysates were determined by the Pierce BCA kit (Thermo Fisher). 3 μL of 0.3 μg/uL of the protein lysate was loaded onto a 12- to 230-kDa WES assay plate (ProteinSimple) where 300 nL sample was withdrawn through a capillary, subjected to electrophoretic separation of proteins by size, and followed by the simultaneous, HRP-based detection of proteins using the Anti-Rabbit Detection Module (Proteinsimple: #DM-001). The electropherograms were checked then the automatic peak detection was manually corrected if it was required.
# A black check mark indicates efficacy of 30% to 70% or higher protein degradation.
smiles,measurement,setting,value
COc1ccc2c(c1)C(c1ccc(Cl)cc1)=N[C@@H](CC(=O)NCCNC(=O)c1cccc(B(O)O)c1)c1nnc(C)n1-2 [BRD-E02],"Degradation of BRD4, combination with VHL ligand [drawing 442]",Table 3,✓ (A black check mark indicates efficacy of 30% to 70% or higher protein degradation)
COc1ccc2c(c1)C(c1ccc(Cl)cc1)=N[C@@H](CC(=O)NCCCNC(=O)c1cccc(B(O)O)c1)c1nnc(C)n1-2 [BRD-E04],"Degradation of BRD4, combination with CRBN ligand [drawing 421]",,✓ (A black check mark indicates efficacy of 30% to 70% or higher protein degradation)
same,"Degradation of BRD4, combination with CRBN ligand [drawing 422]",,✓ (A black check mark indicates efficacy of 30% to 70% or higher protein degradation)
same,"Degradation of BRD4, combination with CRBN ligand [drawing 397]",,✓ (A black check mark indicates efficacy of 30% to 70% or higher protein degradation)
COc1ccc2c(c1)C(c1ccc(Cl)cc1)=N[C@@H](CC(=O)NCCCCNC(=O)c1ccc(B(O)O)cc1)c1nnc(C)n1-2 [BRD-E05],"Degradation of BRD4, combination with CRBN ligand [drawing 421]",,✓ (A black check mark indicates efficacy of 30% to 70% or higher protein degradation)
same,"Degradation of BRD4, combination with CRBN ligand [drawing 422]",,✓ (A black check mark indicates efficacy of 30% to 70% or higher protein degradation)
COc1ccc2c(c1)C(c1ccc(Cl)cc1)=N[C@@H](CC(=O)NCCCCCNC(=O)c1ccc(B(O)O)cc1)c1nnc(C)n1-2 [BRD-E07],"Degradation of BRD4, combination with CRBN ligand [drawing 422]",,✓ (A black check mark indicates efficacy of 30% to 70% or higher protein degradation)
"COc1ccc2c(c1)C(c1ccc(Cl)cc1)=N[C@@H](CC(=O)NCc1ccc(B(O)O)cc1)c1nnc(C)n1-2 [BRD-E09, (4-((2-((4S)-6-(4-chlorophenyl)-8-methoxy-1-methyl-4H-benzo[f][1,2,4]triazolo[4,3-a][1,4]diazepin-4-yl)acetamido)methyl)phenyl)boronic acid]","Degradation of BRD4, combination with CRBN ligand [drawing 421]",,✓ (A black check mark indicates efficacy of 30% to 70% or higher protein degradation)
same,"Degradation of BRD4, combination with VHL ligand [drawing 442]",Table 3,✓ (A black check mark indicates efficacy of 30% to 70% or higher protein degradation)
COc1ccc2c(c1)C(c1ccc(Cl)cc1)=N[C@@H](CC(=O)NCc1cccc(B(O)O)c1)c1nnc(C)n1-2 [BRD-E10],"Degradation of BRD4, combination with CRBN ligand [drawing 421]",,✓ (A black check mark indicates efficacy of 30% to 70% or higher protein degradation)
same,"Degradation of BRD4, combination with CRBN ligand [drawing 397]",,✓ (A black check mark indicates efficacy of 30% to 70% or higher protein degradation)
same,"Degradation of BRD4, combination with VHL ligand [drawing 441]","Table 3, aromatic 1,2-diol-containing VHL ligand drawn as drawing 441 (by the text apparently 8304)",✓ (A black check mark indicates efficacy of 30% to 70% or higher protein degradation)
"COc1ccc2c(c1)C(c1ccc(Cl)cc1)=N[C@@H](CC(=O)NCCc1ccc(B(O)O)cc1)c1nnc(C)n1-2 [BRD-E14, (4-(2-(2-((4S)-6-(4-chlorophenyl)-8-methoxy-1-methyl-4H-benzo[f][1,2,4]triazolo[4,3-a][1,4]diazepin-4-yl)acetamido)ethyl)phenyl)boronic acid]","Degradation of BRD4, combination with CRBN ligand [drawing 421]",,✓ (A black check mark indicates efficacy of 30% to 70% or higher protein degradation)
same,"Degradation of BRD4, combination with MDM2 ligand [drawing 431]",,✓ (A black check mark indicates efficacy of 30% to 70% or higher protein degradation)
same,"Degradation of BRD4, combination with VHL ligand [drawing 442]",Table 3,✓ (A black check mark indicates efficacy of 30% to 70% or higher protein degradation)
"COc1ccc2c(c1)C(c1ccc(Cl)cc1)=N[C@@H](CC(=O)NCCNC(=O)Cc1ccc(B(O)O)cc1)c1nnc(C)n1-2 [BRD-E27, (4-(2-((2-(2-((4S)-6-(4-chlorophenyl)-8-methoxy-1-methyl-4H-benzo[f][1,2,4]triazolo[4,3-a][1,4]diazepin-4-yl)acetamido)ethyl)amino)-2-oxoethyl)phenyl)boronic acid]","Degradation of BRD4, combination with CRBN ligand [drawing 421]",,✓ (A black check mark indicates efficacy of 30% to 70% or higher protein degradation)
COc1ccc2c(c1)C(c1ccc(Cl)cc1)=N[C@@H](CC(=O)NCCNC(=O)Cc1cccc(B(O)O)c1)c1nnc(C)n1-2 [BRD-E38],"Degradation of BRD4, combination with CRBN ligand [drawing 421]",,✓ (A black check mark indicates efficacy of 30% to 70% or higher protein degradation)
CCNC(=O)C[C@@H]1N=C(c2ccc(Cl)cc2)c2cc(OCCOCCNC(=O)c3ccc(B(O)O)cc3)ccc2-n2c(C)nnc21 [BRD-E39],"Degradation of BRD4, combination with CRBN ligand [drawing 397]",,✓ (A black check mark indicates efficacy of 30% to 70% or higher protein degradation)
CCNC(=O)C[C@@H]1N=C(c2ccc(Cl)cc2)c2cc(OCCOCCOCCNC(=O)c3cccc(B(O)O)c3)ccc2-n2c(C)nnc21 [BRD-E42],"Degradation of BRD4, combination with CRBN ligand [drawing 421]",,✓ (A black check mark indicates efficacy of 30% to 70% or higher protein degradation)
CCNC(=O)C[C@@H]1N=C(c2ccc(Cl)cc2)c2cc(OCCOCCOCCOCCNC(=O)c3ccc(B(O)O)cc3)ccc2-n2c(C)nnc21 [BRD-E43],"Degradation of BRD4, combination with CRBN ligand [drawing 421]",,✓ (A black check mark indicates efficacy of 30% to 70% or higher protein degradation)
same,"Degradation of BRD4, combination with CRBN ligand [drawing 422]",,✓ (A black check mark indicates efficacy of 30% to 70% or higher protein degradation)
COc1ccc2c(c1)C(c1ccc(Cl)cc1)=N[C@@H](CC(=O)NCCOCCOCCNC(=O)c1ccc(B(O)O)cc1)c1nnc(C)n1-2 [BRD-E45],"Degradation of BRD4, combination with CRBN ligand [drawing 422]",,✓ (A black check mark indicates efficacy of 30% to 70% or higher protein degradation)
same,"Degradation of BRD4, combination with VHL ligand [drawing 442]",Table 3,✓ (A black check mark indicates efficacy of 30% to 70% or higher protein degradation)
CCNC(=O)C[C@@H]1N=C(c2ccc(SCc3ccc(B(O)O)cc3)cc2)c2cc(OC)ccc2-n2c(C)nnc21 [BRD-E54],"Degradation of BRD4, combination with VHL ligand [drawing 442]",Table 3,✓ (A black check mark indicates efficacy of 30% to 70% or higher protein degradation)
"COc1ccc2c(c1)C(c1ccc(Cl)cc1)=N[C@@H](CC(=O)Nc1ccc(B(O)O)cc1)c1nnc(C)n1-2 [BRD-E74, (4-(2-((4S)-6-(4-chlorophenyl)-8-methoxy-1-methyl-4H-benzo[f][1,2,4]triazolo[4,3-a][1,4]diazepin-4-yl)acetamido)phenyl)boronic acid]","Degradation of BRD4, combination with CRBN ligand [drawing 397]",,✓ (A black check mark indicates efficacy of 30% to 70% or higher protein degradation)
same,"Degradation of BRD4, combination with MDM2 ligand [drawing 431]",,✓ (A black check mark indicates efficacy of 30% to 70% or higher protein degradation)
COc1ccc2c(c1)C(c1ccc(Cl)cc1)=N[C@@H](CC(=O)NCCNC(=O)c1ccc(O)c(O)c1)c1nnc(C)n1-2 [BRD-N01],"Degradation of BRD4, combination with CRBN ligand [drawing 457]",,✓ (A black check mark indicates efficacy of 30% to 70% or higher protein degradation)
COc1ccc2c(c1)C(c1ccc(Cl)cc1)=N[C@@H](CC(=O)NCCCCNC(=O)c1ccc(O)c(O)c1)c1nnc(C)n1-2 [BRD-N05],"Degradation of BRD4, combination with CRBN ligand [drawing 457]",,✓ (A black check mark indicates efficacy of 30% to 70% or higher protein degradation)
COc1ccc2c(c1)C(c1ccc(Cl)cc1)=N[C@@H](CC(=O)NCCCCNC(=O)c1cccc(O)c1O)c1nnc(C)n1-2 [BRD-N06],"Degradation of BRD4, combination with CRBN ligand [drawing 457]",,✓ (A black check mark indicates efficacy of 30% to 70% or higher protein degradation)
"CCNC(=O)C[C@@H]1N=C(c2ccc(Cl)cc2)c2cc(OCCCCC(=O)Nc3ccc(O)c(O)c3)ccc2-n2c(C)nnc21 [BRD-N22, 5-(((4S)-6-(4-chlorophenyl)-4-(2-(ethylamino)-2-oxoethyl)-1-methyl-4H-benzo[f][1,2,4]triazolo[4,3-a][1,4]diazepin-8-yl)oxy)-N-(3,4-dihydroxyphenyl)pentanamide]","Degradation of BRD4, combination with CRBN ligand [drawing 457]",,✓ (A black check mark indicates efficacy of 30% to 70% or higher protein degradation)
COc1ccc2c(c1)C(c1ccc(Cl)cc1)=N[C@@H](CC(=O)NCCNC(=O)Cc1ccc(O)c(O)c1)c1nnc(C)n1-2 [BRD-N30],"Degradation of BRD4, combination with CRBN ligand [drawing 457]",,✓ (A black check mark indicates efficacy of 30% to 70% or higher protein degradation)
"CCNC(=O)C[C@@H]1N=C(c2ccc(Cl)cc2)c2cc(OCCOCCNC(=O)c3ccc(O)c(O)c3)ccc2-n2c(C)nnc21 [BRD-N38, N-(2-(2-(((4S)-6-(4-chlorophenyl)-4-(2-(ethylamino)-2-oxoethyl)-1-methyl-4H-benzo[f][1,2,4]triazolo[4,3-a][1,4]diazepin-8-yl)oxy)ethoxy)ethyl)-3,4-dihydroxybenzamide]","Degradation of BRD4, combination with CRBN ligand [drawing 457]",,✓ (A black check mark indicates efficacy of 30% to 70% or higher protein degradation)
CCNC(=O)C[C@@H]1N=C(c2ccc(Cl)cc2)c2cc(OCCOCCOCCNC(=O)c3ccc(O)c(O)c3)ccc2-n2c(C)nnc21 [BRD-N40],"Degradation of BRD4, combination with VHL ligand [drawing 465]","Table 6, aryl-boronic acid-containing VHL ligand drawn as drawing 465",✓ (A black check mark indicates efficacy of 30% to 70% or higher protein degradation)

# Source: US20240000950A1, “THERAPEUTIC CURE-PRO COMPOUNDS FOR TARGETED DEGRADATION OF BET DOMAIN PROTEINS, AND METHODS OF MAKING AND USING THEM” (CORNELL UNIVERSITY, priority 2020, published 2024)
